Structures are written as SMILES. Several values for one entry are separate records, joined by “and”; a condition that tells them apart may be missing. Equal entries are not always repeated.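 96-well plates; 48 h exposure; 5 concentrations. Endpoints by linear interpolation between flanking doses. Not reached: highest tested concentration assigned. GI50 = concentration required for 50% inhibition of growth. TGI marks complete inhibition of growth.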 Some results are limits rather than exact numbers.

The values below come from PubChem BioAssay (NCI).

Test systems include HOP-62 NSCLC; PC-3 prostate; MOLT-4 leukemia; OVCAR-3 ovarian; CAKI-1 renal; UO-31 renal; OVCAR-4 ovarian; A549 NSCLC; SR leukemia; IGROV1 ovarian.
Holding throughout (assay): NCI-60 cell line screen, 48 h

For `C=C1C(=O)OC2CC1C(OC(C)=O)C/C(C)=C/CC/C(C)=C\CCC2(C)O` (centres undefined), the TGI in the experiment with HOP-62 NSCLC was 35.4 µM and 31.7 µM; in the experiment on PC-3 prostate it was 19.6 µM and > 100 µM; with MOLT-4 leukemia, 6.23 µM and 7.81 µM; with OVCAR-3 ovarian, 21.1 µM and 51.2 µM; with CAKI-1 renal, 14.2 µM and 9.91 µM; in the experiment with UO-31 renal, 18.3 µM and 12.3 µM. For the same compound, the TGI in the experiment on OVCAR-4 ovarian was 21 µM and 19.2 µM; in the experiment with A549 NSCLC it was 33.2 µM and 51.1 µM; in the experiment with SR leukemia it was 4.85 µM; in the experiment on IGROV1 ovarian, 14.5 µM and 20.1 µM. The GI50 in the experiment on PC-3 prostate is 6.08 µM and 19.9 µM; in the experiment on IGROV1 ovarian, 3.34 µM and 6.68 µM.

On to `O=C(/C=C/c1cccc(S(=O)(=O)Nc2ccccc2)c1)NO`, for which the GI50 is 0.529 µM and 0.325 µM in the experiment on HOP-62 NSCLC; 0.557 µM and 0.151 µM in the experiment with PC-3 prostate; 0.565 µM and 0.512 µM in the experiment on OVCAR-3 ovarian; 0.401 µM and 0.462 µM in the experiment with CAKI-1 renal; 0.448 µM and 0.134 µM in the experiment with UO-31 renal; 1.98 µM and 1.08 µM in the experiment with OVCAR-4 ovarian. In addition, the GI50 with A549 NSCLC is 0.459 µM and 0.0805 µM; in the experiment with IGROV1 ovarian, 0.623 µM and 0.116 µM. In addition, the TGI with HOP-62 NSCLC is 13.1 µM and 5.34 µM; with PC-3 prostate it was 51.2 µM and 21.8 µM; in the experiment with MOLT-4 leukemia, over 29.9 µM; in the experiment on OVCAR-3 ovarian, 4.16 µM and 3.76 µM; with CAKI-1 renal, 2.48 µM and 1.86 µM; in the experiment on UO-31 renal it was 5.91 µM and 29.5 µM. The TGI with OVCAR-4 ovarian was over 100 µM; with A549 NSCLC, 17.8 µM and 44.4 µM; in the experiment on SR leukemia, 22.8 µM; with IGROV1 ovarian, 4.43 µM and > 26.6 µM.

As to `COc1ccc(C2CC(c3ccc4ccccc4c3)=NN2c2nc(O)c(C3=c4cc(OC)ccc4=NC3=O)s2)cc1` (centres undefined), the GI50 in the experiment on HOP-62 NSCLC is 0.0633 µM; in the experiment with PC-3 prostate it was 0.0675 µM; in the experiment with MOLT-4 leukemia, 0.11 µM; with OVCAR-3 ovarian, 0.0569 µM; in the experiment on CAKI-1 renal, 0.349 µM; in the experiment with UO-31 renal, 0.202 µM. Moreover, the GI50 is 0.033 µM in the experiment with OVCAR-4 ovarian, 0.0612 µM in the experiment on A549 NSCLC, 0.0531 µM in the experiment with SR leukemia and 0.0641 µM in the experiment with IGROV1 ovarian. Moreover, the TGI came to 0.158 µM in the experiment on HOP-62 NSCLC; 0.334 µM in the experiment on PC-3 prostate; 0.91 µM in the experiment with MOLT-4 leukemia; 0.17 µM with OVCAR-3 ovarian; 0.414 µM in the experiment on UO-31 renal; 0.128 µM in the experiment with OVCAR-4 ovarian. The TGI in the experiment with A549 NSCLC was found to be 0.223 µM; with SR leukemia it was 2.92 µM; in the experiment on IGROV1 ovarian, 0.388 µM.

Turning to `CS(=N)(=O)CCC(N)P(=O)(O)O` (centres undefined), the TGI in the experiment with HOP-62 NSCLC, with PC-3 prostate, with MOLT-4 leukemia, in the experiment with OVCAR-3 ovarian, in the experiment on CAKI-1 renal and in the experiment on UO-31 renal was over 100 µM each time. Moreover, the TGI in the experiment with OVCAR-4 ovarian, with A549 NSCLC, in the experiment with SR leukemia and with IGROV1 ovarian was over 100 µM in each case.

With `O=c1[nH]c2ccccc2n2cc3ccccc3c12`, the GI50 is 4.42 µM with HOP-62 NSCLC; 5.74 µM in the experiment with PC-3 prostate; 3.62 µM in the experiment with MOLT-4 leukemia; 18.6 µM in the experiment with OVCAR-3 ovarian; 17.6 µM in the experiment with CAKI-1 renal; 12.6 µM in the experiment on UO-31 renal. The GI50 is 7.2 µM in the experiment with OVCAR-4 ovarian, 5.9 µM with A549 NSCLC, 2.87 µM in the experiment with SR leukemia and 10.3 µM in the experiment with IGROV1 ovarian. The TGI in the experiment on HOP-62 NSCLC is 17.9 µM; in the experiment with PC-3 prostate, 29.1 µM; in the experiment on MOLT-4 leukemia, 8.77 µM; in the experiment on OVCAR-3 ovarian, 36.7 µM; in the experiment with CAKI-1 renal, 35.5 µM; with UO-31 renal it was 26.6 µM. Besides, the TGI with OVCAR-4 ovarian worked out at 89.7 µM; in the experiment on A549 NSCLC, 32.2 µM; in the experiment on SR leukemia it was 7.7 µM; in the experiment on IGROV1 ovarian it was 25.4 µM.

For the compound `NCCCNc1nc2ccc(Cl)cc2c2c(=O)c3cc(F)ccc3sc12`, the GI50 is 6.47 µM in the experiment with HOP-62 NSCLC; 3.43 µM in the experiment with PC-3 prostate; 1.87 µM with MOLT-4 leukemia; 1.92 µM with OVCAR-3 ovarian; 6.39 µM in the experiment with CAKI-1 renal; 3.35 µM in the experiment on UO-31 renal. Moreover, the GI50 in the experiment on OVCAR-4 ovarian was 4.3 µM; with A549 NSCLC it was 1.77 µM; with SR leukemia it was 2.1 µM; in the experiment on IGROV1 ovarian, 1.91 µM. Moreover, the TGI was 28.5 µM in the experiment with HOP-62 NSCLC; 14.2 µM in the experiment on PC-3 prostate; 3.95 µM in the experiment with MOLT-4 leukemia; 4.03 µM in the experiment with OVCAR-3 ovarian; 20.2 µM with CAKI-1 renal; 16.1 µM in the experiment with UO-31 renal. The TGI in the experiment on OVCAR-4 ovarian was determined as 18 µM; in the experiment with A549 NSCLC, 3.89 µM; in the experiment on SR leukemia, 5.37 µM; in the experiment on IGROV1 ovarian, 5.1 µM.

Turning to `COc1ncc(-c2ccc3nccc(C#CCN4CCN(S(C)(=O)=O)CC4)c3c2)cc1NS(=O)(=O)c1ccc(F)cc1F`, the GI50 in the experiment with HOP-62 NSCLC was under 0.0159 µM; in the experiment on PC-3 prostate, 0.058 µM; with MOLT-4 leukemia it was 0.0391 µM; with OVCAR-3 ovarian it was 0.0466 µM; in the experiment with CAKI-1 renal, 0.173 µM; with UO-31 renal, 0.0274 µM. Also, the GI50 in the experiment on OVCAR-4 ovarian was 0.264 µM; with A549 NSCLC, 0.083 µM; with SR leukemia, 0.222 µM; in the experiment on IGROV1 ovarian it was under 0.01 µM. Further, the TGI was 5.56 µM with HOP-62 NSCLC; 10.9 µM with PC-3 prostate; 2.29 µM with MOLT-4 leukemia; 0.982 µM in the experiment with OVCAR-3 ovarian; 13.4 µM in the experiment with CAKI-1 renal; 3.73 µM with UO-31 renal. Also, the TGI in the experiment on OVCAR-4 ovarian stood at 12 µM; in the experiment on A549 NSCLC it was 7.68 µM; in the experiment on SR leukemia, 27 µM; in the experiment with IGROV1 ovarian, 0.0333 µM.
